Measured values from patent US9737545B2 (MERCK SHARP & DOHME CORP., priority 2013, dated 2017).

Target: T1, wildtype HIV-1 protease (Human immunodeficiency virus type 1 group M subtype B, UniProt P04585)
T1 construct: preincubated with the HIV-1 protease (wild type) enzyme in assay buffer; made in house; host or cells: Escherichia coli
Assay: Assay for Inhibition of Microbial Expressed HIV Protease (Pepcleav)
Type: biochemical
Procedure: Assay for Inhibition of Microbial Expressed HIV Protease (“Pepcleav”)
Studies of the inhibition of the wildtype HIV-1 protease (which was expressed in Escherichia coli) were carried out with a peptide substrate [Val-Ser-Gln-Asn-(βnaphthyl)Ala-Pro-Ile-Val (SEQ ID NO: 1)]. The inhibitor was first preincubated with the HIV-1 protease (wild type) enzyme in assay buffer (50 mM sodium acetate, pH 5.5, 100 mM NaCl, and 0.1% BSA) for 30 minutes at room temperature. Substrate was added to 400 micromolar in a total volume of 20 microliters containing 20 picomolar HIV-1 protease (final) and the reaction was incubated for 1 hour at 30° C. The reaction was quenched with the addition of formic acid and indinavir to 0.012% and 150 nM final concentrations, respectively. The product formation was determined after separation of product and substrate on a Zorbax Eclipse XDB-C18 column connected to an API 4000 mass spectrometer (Applied Biosystems) with multiple reaction monitoring (transitions were 644.5/428.9 and 615.4/422.2 (M1/M3) for product and indinavir respectively). The extent of inhibition of the reaction was determined from the peak area of the products. Analysis of the products, independently synthesized, provided quantitation standards and confirmation of the product composition.

Row | SMILES | IC50 [nM]
1 | COC(=O)N[C@H](C(=O)Nc1ccccc1CC[C@@H]1CN[C@H](c2nc3ccccc3[nH]2)CO1)C(c1ccccc1)c1ccccc1 [Example 1, N-(2-{2-[(2R,5R)-5-(1H-benzimidazol-2-yl)morpholin-2-yl]ethyl}phenyl)-Nα-(methoxycarbonyl)-β-phenyl-L-phenylalaninamide] | 0.0374
2 | COC(=O)N[C@H](C(=O)Nc1ccccc1CC[C@@H]1CN[C@H](c2nc3ccccc3n2C)CO1)C(c1ccccc1)c1ccccc1 [Example 2, methyl N-[(1S)-1-benzhydryl-2-[[2-[2-[(2R,5R)-5-(1-methylbenzimidazol-2-yl)morpholin-2-yl]ethyl]phenyl]amino]-2-oxo-ethyl]carbamate] | 7.96
3 | COC(=O)N[C@H](C(=O)Nc1ccccc1CC[C@@H]1CN[C@H](c2nc3cccc(C)c3[nH]2)CO1)C(c1ccccc1)c1ccccc1 [Example 3, methyl N-[(1S)-1-benzhydryl-2-[[2-[2-[(2R,5R)-5-(7-methyl-1H-benzimidazol-2-yl)morpholin-2-yl]ethyl]phenyl]amino]-2-oxo-ethyl]carbamate] | 0.0639
4 | COC(=O)N[C@H](C(=O)Nc1ccccc1CC[C@@H]1CN[C@H](c2nc3ccc(C)cc3[nH]2)CO1)C(c1ccccc1)c1ccccc1 [Example 4, methyl N-[(1S)-1-benzhydryl-2-[[2-[2-[(2R,5R)-5-(6-methyl-1H-benzimidazol-2-yl)morpholin-2-yl]ethyl]phenyl]amino]-2-oxo-ethyl]carbamate] | 0.0923
5 | COC(=O)N[C@H](C(=O)Nc1ccccc1CC[C@@H]1CN[C@H](c2nc3ccncc3[nH]2)CO1)C(c1ccccc1)c1ccccc1 [Example 5, methyl N-[(1S)-1-benzhydryl-2-[[2-[2-[(2R,5R)-5-(3H-imidazo[4,5-c]pyridin-2-yl)morpholin-2-yl]ethyl]phenyl]amino]-2-oxo-ethyl]carbamate] | 7.41
6 | COC(=O)N[C@H](C(=O)Nc1ccccc1CC[C@@H]1CN[C@H](c2nc3ccc(OC)cc3[nH]2)CO1)C(c1ccccc1)c1ccccc1 [Example 6, methyl N-[(1S)-1-benzhydryl-2-[[2-[2-[(2R,5R)-5-(6-methoxy-1H-benzimidazol-2-yl)morpholin-2-yl]ethyl]phenyl]amino]-2-oxo-ethyl]carbamate] | 0.334
7 | COC(=O)N[C@H](C(=O)Nc1ccccc1CC[C@@H]1CN[C@H](c2nc3ccc(S(C)(=O)=O)cc3[nH]2)CO1)C(c1ccccc1)c1ccccc1 [Example 7, methyl N-[(1S)-1-benzhydryl-2-[[2-[2-[(2R,5R)-5-(6-methylsulfonyl-1H-benzimidazol-2-yl)morpholin-2-yl]ethyl]phenyl]amino]-2-oxo-ethyl]carbamate] | 37.1
8 | COC(=O)N[C@H](C(=O)Nc1ccccc1CC[C@@H]1CN[C@H](c2nc3ccc(C(F)(F)F)cc3[nH]2)CO1)C(c1ccccc1)c1ccccc1 [Example 8, methyl N-[(1S)-1-benzhydryl-2-oxo-2-[[2-[2-[(2R,5R)-5-[6-(trifluoromethyl)-1H-benzimidazol-2-yl]morpholin-2-yl]ethyl]phenyl]amino]ethyl]carbamate] | 0.504
9 | COC(=O)N[C@H](C(=O)Nc1ccccc1CC[C@@H]1CN[C@H](c2nc3cc(C)c(C)cc3[nH]2)CO1)C(c1ccccc1)c1ccccc1 [Example 9, methyl N-[(1S)-1-benzhydryl-2-[[2-[2-[(2R,5R)-5-(5,6-dimethyl-1H-benzimidazol-2-yl)morpholin-2-yl]ethyl]phenyl]amino]-2-oxo-ethyl]carbamate] | 0.0516
10 | COC(=O)N[C@H](C(=O)Nc1ccccc1CC[C@@H]1CN[C@H](c2nc3ccc(C#N)cc3[nH]2)CO1)C(c1ccccc1)c1ccccc1 [Example 10, methyl N-[(1S)-1-benzhydryl-2-[[2-[2-[(2R,5R)-5-(6-cyano-1H-benzimidazol-2-yl)morpholin-2-yl]ethyl]phenyl]amino]-2-oxo-ethyl]carbamate] | 1.59
11 | COC(=O)N[C@H](C(=O)Nc1ccccc1CC[C@@H]1CN[C@H](c2nc3ccc(Br)cc3[nH]2)CO1)C(c1ccccc1)c1ccccc1 [Example 11, methyl N-[(1S)-1-benzhydryl-2-[[2-[2-[(2R,5R)-5-(6-bromo-1H-benzimidazol-2-yl)morpholin-2-yl]ethyl]phenyl]amino]-2-oxo-ethyl]carbamate] | 0.411
12 | COC(=O)N[C@H](C(=O)Nc1ccccc1CC[C@@H]1CN[C@H](c2nc3cc(Cl)c(Cl)cc3[nH]2)CO1)C(c1ccccc1)c1ccccc1 [Example 12] | 0.706
13 | COC(=O)N[C@H](C(=O)Nc1ccccc1CC[C@@H]1CN[C@H](c2nc3cccc(Cl)c3[nH]2)CO1)C(c1ccccc1)c1ccccc1 [Example 13, methyl N-[(1S)-1-benzhydryl-2-[[2-[2-[(2R,5R)-5-(7-chloro-1H-benzimidazol-2-yl)morpholin-2-yl]ethyl]phenyl]amino]-2-oxo-ethyl]carbamate] | 0.137
14 | COC(=O)N[C@H](C(=O)Nc1ccccc1CC[C@@H]1CN[C@H](c2nc3cccc(Br)c3[nH]2)CO1)C(c1ccccc1)c1ccccc1 [Example 14, methyl N-[(1S)-1-benzhydryl-2-[[2-[2-[(2R,5R)-5-(7-bromo-1H-benzimidazol-2-yl)morpholin-2-yl]ethyl]phenyl]amino]-2-oxo-ethyl]carbamate] | 0.592
15 | COC(=O)N[C@H](C(=O)Nc1ccccc1CC[C@@H]1CN[C@H](c2nc3c(O)cccc3[nH]2)CO1)C(c1ccccc1)c1ccccc1 [Example 15, methyl N-[(1S)-1-benzhydryl-2-[[2-[2-[(2R,5R)-5-(4-hydroxy-1H-benzimidazol-2-yl)morpholin-2-yl]ethyl]phenyl]amino]-2-oxo-ethyl]carbamate] | 0.0559
16 | COC(=O)N[C@H](C(=O)Nc1ccccc1CC[C@@H]1CN[C@H](c2nc3cc(F)c(F)cc3[nH]2)CO1)C(c1ccccc1)c1ccccc1 [Example 16, methyl N-[(1S)-1-benzhydryl-2-[[2-[2-[(2R,5R)-5-(5,6-difluoro-1H-benzimidazol-2-yl)morpholin-2-yl]ethyl]phenyl]amino]-2-oxo-ethyl]carbamate] | 0.0246
17 | COC(=O)N[C@H](C(=O)Nc1ccccc1CC[C@@H]1CN[C@H](c2nc3c(F)c(F)c(F)cc3[nH]2)CO1)C(c1ccccc1)c1ccccc1 [Example 17, methyl N-[(1S)-1-benzhydryl-2-oxo-2-[[2-[2-[(2R,5R)-5-(4,5,6-trifluoro-1H-benzimidazol-2-yl)morpholin-2-yl]ethyl]phenyl]amino]ethyl]carbamate] | 0.0747
18 | COC(=O)N[C@H](C(=O)Nc1ccccc1CC[C@@H]1CN[C@H](c2nc3ccc(F)cc3[nH]2)CO1)C(c1ccccc1)c1ccccc1 [Example 18, methyl N-[(1S)-1-benzhydryl-2-[[2-[2-[(2R,5R)-5-(6-fluoro-1H-benzimidazol-2-yl)morpholin-2-yl]ethyl]phenyl]amino]-2-oxo-ethyl]carbamate] | 0.125
19 | COC(=O)N[C@H](C(=O)Nc1ccccc1CC[C@@H]1CN[C@H](c2nc3c(Br)cc(C)cc3[nH]2)CO1)C(c1ccccc1)c1ccccc1 [Example 19, methyl N-[(1S)-1-benzhydryl-2-[[2-[2-[(2R,5R)-5-(4-bromo-6-methyl-1H-benzimidazol-2-yl)morpholin-2-yl]ethyl]phenyl]amino]-2-oxo-ethyl]carbamate] | 0.573
20 | COC(=O)N[C@H](C(=O)Nc1ccccc1CC[C@@H]1CN[C@H](c2nc3cc(F)c(Br)cc3[nH]2)CO1)C(c1ccccc1)c1ccccc1 [Example 20, methyl N-[(1S)-1-benzhydryl-2-[[2-[2-[(2R,5R)-5-(6-bromo-5-fluoro-1H-benzimidazol-2-yl)morpholin-4-ium-2-yl]ethyl]phenyl]amino]-2-oxo-ethyl]carbamate] | 0.525
21 | COC(=O)N[C@H](C(=O)Nc1ccccc1CC[C@@H]1CN[C@H](c2nc3nccnc3[nH]2)CO1)C(c1ccccc1)c1ccccc1 [Example 21, methyl N-[(1S)-1-benzhydryl-2-[[2-[2-[(2R,5R)-5-(3H-imidazo[4,5-b]pyrazin-2-yl)morpholin-2-yl]ethyl]phenyl]amino]-2-oxo-ethyl]carbamate] | 1.68
22 | COC(=O)N[C@H](C(=O)Nc1ccccc1CC[C@@H]1CN[C@H](c2nc3cc(Cl)c(C)cc3[nH]2)CO1)C(c1ccccc1)c1ccccc1 [Example 22, methyl N-[(1S)-1-benzhydryl-2-[[2-[2-[(2R,5R)-5-(5-chloro-6-methyl-1H-benzimidazol-2-yl)morpholin-2-yl]ethyl]phenyl]amino]-2-oxo-ethyl]carbamate] | 1.93
23 | COC(=O)N[C@H](C(=O)Nc1ccccc1CC[C@@H]1CN[C@H](c2nc3c(C)ccnc3[nH]2)CO1)C(c1ccccc1)c1ccccc1 [Example 23, methyl N-[(1S)-1-benzhydryl-2-[[2-[2-[(2R,5R)-5-(7-methyl-3H-imidazo[4,5-b]pyridin-2-yl)morpholin-2-yl]ethyl]phenyl]amino]-2-oxo-ethyl]carbamate] | 3.13
24 | COC(=O)N[C@H](C(=O)Nc1ccccc1CC[C@@H]1CN[C@H](c2nc3c(C)cc(Cl)cc3[nH]2)CO1)C(c1ccccc1)c1ccccc1 [Example 24, methyl N-[(1S)-1-benzhydryl-2-[[2-[2-[(2R,5R)-5-(6-chloro-4-methyl-1H-benzimidazol-2-yl)morpholin-2-yl]ethyl]phenyl]amino]-2-oxo-ethyl]carbamate] | 16.3
